Measured values published in US12490740B2, “Active compound combinations having insecticidal properties” (Bayer Aktiengesellschaft, priority 2019, dated 2025).
Like-named read-outs stand apart in the source and are kept apart here.

Columns and labels:
Spodoptera frugiperda = Spodoptera frugiperda - spray test (cotton leaves); type: in vivo
Protocol: (§1) The expected efficacy of a given combination of two compounds is calculated as follows (see Colby, S. R., “Calculating Synergistic and antagonistic Responses of Herbicide Combinations”, Weeds 15, pp. 20-22, 1967): • If • X is the efficacy expressed in % mortality of the untreated control for test compound A at a concentration of m ppm respectively m g/ha, • Y is the efficacy expressed in % mortality of the untreated control for test compound B at a concentration of n ppm respectively n g/ha, • E is the efficacy expressed in % mortality of the untreated control using the mixture of A and B at m and n ppm respectively m and n g/ha, • then is
(§2) If the observed insecticidal efficacy of the combination is higher than the one calculated as “E”, then the combination of the two compounds is more than additive, i.e. there is a synergistic effect.
Spodoptera frugiperda—Spray Test
(§3) • Solvent: 7 parts by weight of dimethylformamide • Emulsifier: alkylaryl polyglycol ether
(§4) To produce a suitable preparation of active compound, 1 part by weight of active compound is mixed with the stated amount of solvent and is diluted with water, containing an emulsifier concentration of 1000 ppm, to the desired concentration. Further test concentrations are prepared by dilution with emulsifier containing water.
Cotton leaves (Gossypium hirsutum) are treated by being sprayed with the preparation of the active compound of the desired concentration and are infested with caterpillars of the fall army worm (Spodoptera frugiperda).
After the specified period of time mortality in % is determined. 100% means all the caterpillars have been killed and 0% means none of the caterpillars have been killed. The mortality values determined thus are recalculated using the Colby-formula (see above).

Phaedon cochleariae = Phaedon cochleariae - spray test (cabbage leaves); type: in vivo
Protocol: as §1, §2
Phaedon cochleariae—Spray Test
as §3, §4
Cabbage leaves (Brassica oleracea) are treated by being sprayed with the preparation of the active compound of the desired concentration and are infested with mustard beetle larvae (Phaedon cochleariae).
After the specified period of time mortality in % is determined. 100% means all the beetle larvae have been killed and 0% means none of the beetle larvae have been killed. The mortality values determined thus are recalculated using the Colby-formula (see sheet 1).

[1] = Spodoptera frugiperda, 72 h, read-out: Mortality in % after 3 days

Compound: tetraniliprole
- Mortality in % after 2 days (Spodoptera frugiperda; 0.06 ppm, after 2 days, caterpillars on sprayed cotton leaves): 20%
- Mortality in % after 3 days (Spodoptera frugiperda; 0.06 ppm): 30%
- Mortality in % after 6 days (Spodoptera frugiperda; 0.06 ppm, after 6 days): 60%
- Mortality in % after 3 days (Spodoptera frugiperda; 0.12 ppm): 80%
- Mortality in % after 1 day (Phaedon cochleariae; 0.12 ppm): 10%
- Mortality in % after 2 days (Phaedon cochleariae; 0.12 ppm): 40%
- Mortality in % after 1 day (Phaedon cochleariae; 0.24 ppm, beetle larvae on sprayed cabbage leaves): 30%

Compound: CS(=O)(=O)Oc1cccc(Cl)c1C1CC(c2csc(C3CCN(C(=O)Cn4nc(C(F)F)cc4C(F)F)CC3)n2)=NO1 (centres unmarked) [Fluoxapiprolin, fluoxapiprolin]
- Mortality in % after 1 day (Phaedon cochleariae; 3 ppm): 0%
- Mortality in % after 2 days (Phaedon cochleariae; 3 ppm): 0%
- Mortality in % after 1 day (Phaedon cochleariae; 6 ppm): 0%

Compound: CON(C(=O)c1cn(C)nc1C(F)F)C(C)Cc1c(Cl)cc(Cl)cc1Cl (racemic) [Pydiflumetofen, 3-(difluoromethyl)-N-methoxy-1-methyl-N—[(RS)-1-methyl-2-(2,4,6-trichlorophenyl)ethyl]-1H-pyrazole-4-carboxamide]
- mortality at 1.5 ppm (Spodoptera frugiperda; Spodoptera frugiperda, 48 h, read-out: Mortality in % after 2 days): 0%
- mortality at 1.5 ppm (Spodoptera frugiperda; [1]): 0%
- mortality at 3 ppm (Spodoptera frugiperda; [1]): 0%
- mortality at 1.5 ppm (Spodoptera frugiperda; Spodoptera frugiperda, 144 h, read-out: Mortality in % after 6 days): 0%
